Tests used:
[1] = test system: IL-4; experiment: Mediator release, IL-4 (Con A-stimulated PBML, sandwich ELISA); assay type: cell-based; settings: Homo sapiens
Description: In this experiment, test compound and/or vehicle were preincubated with human peripheral blood mononuclear leukocyte (PBML, 1×10^6/ml) in RPMI buffer pH 7.4 for 2 hours. Concanavalin A (Con A, 20 μg/ml) was then added to stimulate the cells overnight in 5% CO2 at 37° C. IL-4 and IL-10 cytokine levels in the conditioned medium were then quantified using a sandwich ELISA kit. Compounds were screened at 10, 1, 0.1, 0.01 and 0.001 μM.

[2] = test system: Experimental Autoimmune Encephalomyelitis (EAE); assay type: in vivo, guinea pig
Description: Following disease induction, as previously described, the animals were randomized into 5 five cohorts, one vehicle control and 4 treatment cohorts. Animals in the treatment cohorts were administered study drug intraperitoneally at 20 mg/kg (Symadex™dihydrochloride trihydrate) once a week for 4, 6 and 8 weeks, with an additional cohort treated once a week for 4 weeks and observed for an additional 4 weeks of treatment with vehicle solution (saline) rather than with drug.
The only significant protocol deviation from the method of Example 2 was that the pool of immunized animals was culled of animals presenting with a disease severity greater than 2 and randomized so that the mean disease severity of each cohort was matched in the severity score range of 1 to 1.5. This measure was invoked in order to avoid the chance circumstance, observed in Example 2, that animal selected for treatment should start treatment with a more severe presentation than the corresponding vehicle controls.

[3] = test system: Collagen Antibody Induced Arthritis; experiment: Collagen monoclonal antibody (mABs) + LPS induced arthritis, hind paw volume; assay type: in vivo, BALB/c strain mice; settings: for increase in hind paw volume: oral once daily for 3 days, 30 mg/kg
Description: Groups of 3 BALB/c strain mice, 6-7 weeks of age, were used for the induction of arthritis by monoclonal antibodies (mABs) raised against type II collagen, plus lipopolysaccharide (LPS). A combination of 4 different mABs (D8, F10, DI-2G and A2) totaling 4 mg/mouse was administered to the animal intravenously on day 0, followed by intravenous challenge with […] of LPS 72 hours later (day 3). From day 3, test substance and vehicle were each administered orally once daily for 3 consecutive days. For each animal, volumes of both hind paws were measured using a plethysmometer with water cell (12 mm diameter) on Days 0, 5, 7, 10, 14 and 17. Percent inhibition of increase in volume induced by mABs+LPS was calculated by the following formula: Inhibition (%): [1−(Tn−T0)/(Cn−C0)]×100% Where: […]
C0(Cn): volume of day 0 (day n) in vehicle control
T0(Tn): volume of day 0 (day n) in test compound-treated group
Reduction of edema in the hind paws by 30% or more is considered significant.

[4] = human, body surface area, as free base; cited from earlier work

Question: What does the source list for CCN(CC)CCNc1ccc2ncn3c4ccc(O)cc4c(=O)c1c23 [Symadex™, 5-[[(diethylamino)ethyl]amino]-8-hydroxyimidazo[4,5,1-de]-acridine-6-one]?
Answer: % inhibition of IL-4 release at 0.001 µM ([1]; 1 nM, read-out: % Growth Inhibition): 8%; % inhibition of IL-4 release at 0.01 µM ([1]; 10 nM, read-out: % Growth Inhibition): 7%; % inhibition of IL-4 release at 0.1 µM ([1]; 0.1 μM, read-out: % Growth Inhibition): 2%; % inhibition of IL-4 release at 1 µM ([1]; 1 μM, read-out: % Growth Inhibition): -9%; % inhibition of IL-4 release at 10 µM ([1]; 10 μM, read-out: % Growth Inhibition): 105%; IC50 ([1]; IL-4 release): 3.33 µM; clinical scores after drug withdrawal ([2]; 20 mg/kg i.p. once a week for 4 weeks, then 4 weeks vehicle): remained in stable disease at the time of discontinuation; mean clinical severity score ([2]; 20 mg/kg i.p. once a week, 4-week treatment cycle, starting mean 1.3): 0.7; mean severity score ([2]; 20 mg/kg i.p. once a week, 6 week treatment course, control 1.3): 0.3; clinical scores ([2]; 20 mg/kg i.p., 8 consecutive weekly doses): converges on baseline at the end of the treatment course; increase in hind paw volume ([3]; day 5, vehicle 42%): 32%; inhibition of increase in paw volume ([3]; day 10): 61%; increase in hind paw volume ([3]; day 10, vehicle 75%): 29%; inhibition of increase in paw volume ([3]; day 14): 74%; increase in hind paw volume ([3]; day 14, vehicle 70%): 18%; inhibition of increase in paw volume ([3]; day 17): 59%; increase in hind paw volume ([3]; day 17, vehicle 47%): 19%; safe and well-tolerated single dose [4]: 540 mg/m^2
